Test results: patent publication US20150079156A1, “LIPOSOMAL DELIVERY SYSTEM” (THE QUEEN'S UNIVERSITY OF BELFAST, priority 2012, published 2015)

Assays:
[1] = In vitro release of BSA from liposomes, dialysis method; assay type: physicochemical; conditions: free BSA, 4 h, 37° C., PBS pH 7.4
Protocol: in vitro release experiments of BSA from liposomes were performed at 37°±0.5° C. using the dialysis method under constant shaking (60 rpm). A 10 ml of phosphat buffered saline (PBS) pH 7.4 was used to test for the drug release for 48 h. Dialysis bags (Spectra/Por Biotech Cellulose Ester Dialysis Membrane MWCO: 300,000 Spectrum Ls Rancho Dominguez, Calif., USA) containing 500 μl liposomes were introduced into the system. All of the release media was withdrawn and replaced with the same volume of fresh medium at designated time points to maintain sink conditions. The sampled medium (1.0 ml out of 10 ml) was mixed with Bradford's reagent and the absorbance was measured as described in the method for determination of encapsulation efficiency. The concentration of the BSA released from the liposomes was calculated from the obtained linear calibration curve (r≧0.99) as previously described in the method for determination of encapsulation efficiency.

[2] = Nasal tissue penetration, Franz type permeation cell, CLSM; assay type: in vitro ADME, bovine; conditions: CF loaded, 1 hour incubation, 37° C.
Protocol: To investigate the ability of the TPGS:DDA:SPC liposomes of Example 1 to cross nasal mucosa and penetrate into bovine nasal tissue fresh bovine nasal tissues were collected from freshly slaughtered animals. The mucosal tissue was removed and preserved in Krebs Bicarbonate Ringer (KBR) buffer pH 7.4. Liposome penetration studies were performed immediately to maintain the viability of the cells tissue being used. A Franz type permeation cell was used in this study; the recipient compartment filled with KBR buffer and stirred constantly. The temperature of the Franz cell was maintained at 37° C. with jacketed water flow. A 1.5 cm^2 tissue section was inserted between the recipient and donor compartments and 0.5 ml of reconstituted liposomal dispersion or free carboxyfluorescein (CF) solutions containing an equivalent amount of CF were loaded into the donor compartment, and left for 1 hour incubation. The tissues were then washed with KBR buffer and frozen in optimal cutting temperature compound at −80° C. for cryosection. Samples of 10 μm thickness were obtained using a cryostat (MICROM HM 550). Propidium iodide (PI) solution was used to stain the cell nuclei and cryosectioned tissues were mounted in glycerol containing 1,4-phenylenediamine (0.1 g/l). Penetration was observed using confocal laser scanning microscopy (CLSM). […]

[3] = system: human lung epithelial cell line L-132; assay: Cell uptake of CF-loaded liposomal formulations (fluorometry, flow cytometry, CLSM); assay type: cell-based; conditions: L-132 cells, 0.5-2 h at 37° C., 1:100 dilution
Protocol: Cells from the human lung epithelial cell line L-132 were cultured in MEM medium containing Earle's salts and L-glutamine and supplemented with 10% fetal calf serum (FCS), under standard conditions at 37° C. with 5% CO2 and 95% air. To validate the fluorimetric analysis, a standard curve was created during each assay. To perform the fluorometric assay cells were seeded at 25×10^4 cells/well onto 24-well plates (total volume was 1 ml/well). Twenty four hours later, the culture medium was removed. The formulations were added to the cells in 1:100 dilution in MEM medium (10 μl of liposomes suspension+990 μl medium) and incubated for 0.5-2 h at 37° C. Following incubation cells were washed two times with cold PBS to end the uptake experiment. Then the washed cells were lysed with 0.2% Triton X-100 in 0.2 N NaOH (1.0 ml/well) for 0.5-1 hour at room temperature. Aliquots from each well were transferred into 96-well plates. The cell fluorescence intensity was determined using a microplate fluorometer at an excitation wavelength of 485 nm and emission wavelength of 520 nm and Gain level set to 800 in the software (FIG. 4). […] The cells were kept on ice and analysized by flow cytometry using a FACscan flow cytometer for cell-associated CF fluorescence. The mean fluorescence intensity of cells was determined for each sample (FIG. 5). […]

Substance	cumulative release of BSA [1]	penetration into bovine nasal tissue (CLSM) [2]	amount of CF incorporated into cells [3]
bovine serum albumin [free BSA]	46.6±2.6%	–	–
carboxyfluorescein [free CF]	–	completely washed out	free CF<CF-loaded SPC liposomes <CF-loaded TPGS:DDA:SPC liposomes
